{
  "source": "patent US6462086B1",
  "about": "“Non-malignant disease treatment with Ras antagonists” (Ramot University Authority for Applied Research and …, priority 1999, dated 2002)",
  "key": {"[1]": {"test_system": "lymphocytes from naive SJL mice", "experiment": "ConA- and LPS-induced proliferation of lymphocytes from naive SJL mice in vitro (3H-thymidine)", "format": "cell-based", "conditions": "Mus musculus, Lymphocyte, 48 h stimulation"}, "[2]": {"test_system": "splenocytes from ICR mice", "format": "cell-based, mouse", "conditions": "10 and 50 μM FTS", "procedure": "An examination was made as to whether the effect of FTS on Ras levels was of functional importance in splenocytes prepared from 2 ICR mice. Stimulation of ^3H-thymidine incorporation into DNA was used as measure of splenocyte proliferation in the presence of lipopolysaccharide (LPS) or concanavalin A (ConA), and in the presence of 0, 10 and 50 μM FTS. The methods used are detailed below. […] Also, FTS had no effect on basal ^3H-thymidine incorporation into DNA. The concentrations of FTS at which inhibition of lymphocyte cell growth were observed reflect expected levels of the drug when given in animals at doses of 5-10 mg/kg.\nMice were killed by cervical dislocation and spleens removed with sterile precautions and placed in disposable plastic Petri dishes containing Dulbecco's phosphate-buffered saline (DPBS). […] Cells from each microculture were harvested on fibroglass filters with multiharvester and counted in liquid scintillation β counter.\nMitogens and antigens were diluted to appropriate concentrations in the incubation medium and added to the wells at the beginning of incubation period to give a final concentration of 1.0 μg/ml lipopolysaccharide (LPS), 1.0 μg/ml Concanavalin A (ConA) or 10 μg/ml beta2-Glycoprotein I (beta2-GPI). Spontaneous proliferation (without mitogen or antigen) was also assessed. […]\nThe results are expressed as the mean value of stimulation index per group. […]"}, "[3]": {"test_system": "spleen lymphocytes of MRL/lpr and MRL/++ mice", "experiment": "MRL/lpr and MRL/++ mouse spleen lymphocyte proliferation ex vivo", "format": "in vivo", "conditions": "for response to ConA (stimulation index): 5 mg/Kg FTS for 3 months", "procedure": "Mice were killed by cervical dislocation and spleens removed with sterile precautions and placed in disposable plastic Petri dishes containing Dulbecco's phosphate-buffered saline (DPBS). Single cell suspensions were obtained by expressing DPBS through the spleen using a syringe and 19 gauge needle. The cells were suspended in DPBS and centrifuged at 1100 rpm for 7 minutes. Erythrocytes were lysed by a 7-minute incubation in 0.83% (weight/volume) ammonium chloride, and cells were immediately washed three times with DPBS. Spleen cells were suspended to a concentration of 3×10^6 cells/ml in RPMI-1640 medium containing 5% fetal calf serum (FCS), 100 units/ml penicillin, 100 μg/ml streptomycin, 2 mM L-glutamine, 0.1 mM non-essential amino acids, 1 mM sodium pyruvate, and 50 μM 2-mercaptoethanol. Cells were cultured at a concentration of 6×10^5 cells/200 μl culture medium/well in 96-well, flat-bottomed, microculture plates, and were incubated for 72 hours in a humidified atmosphere of 95% air and 5% CO2 at 37° C. At the end of this time, 1 μCi tritiated thymidine (3H-TdR) was added to each well in a 10 μl volume and the cultures were further incubated for 18 hours. Cells from each microculture were harvested on fibroglass filters with multiharvester and counted in liquid scintillation β counter.\nMitogens and antigens were diluted to appropriate concentrations in the incubation medium and added to the wells at the beginning of incubation period to give a final concentration of 1.0 μg/ml lipopolysaccharide (LPS), 1.0 μg/ml Concanavalin A (ConA) or 10 μg/ml beta2-Glycoprotein I (beta2-GPI). Spontaneous proliferation (without mitogen or antigen) was also assessed.\nTo determine the effect of FTS on the MRL/lpr and MRL/++ mouse splenocyte proliferation ex vivo, spleen cells suspensions were prepared from three individual spleens per group, and were separately analyzed in culture (in triplicate). Splenocyte proliferation was evaluated in the presence of LPS, ConA or β2-GPI.\nThe results are expressed as the mean value of stimulation index per group. The stimulation index was calculated as follows: the mean dpm of cells cultured in the presence of mitogen/antigen divided by the mean dpm of cells cultured in the absence of mitogen/antigen.\nThe effect of FTS on lymphocyte proliferation in vivo in MRL/lpr and control MRL/++ mice was determined by ex-vivo experiments. The mice received 5 mg/Kg FTS (5 days a week) for 3 months and spleen lymphocyte proliferation assays were then performed in vitro with no added FTS. Baseline 3H-TdR incorporation was similar in all four groups examined except for a trend towards higher values in the MRL/++ mice treated with FTS. […] As described previously (18, 19), the response of the MRL/lpr mice to ConA was markedly lower than in the MRL/++ control mice. […] An antigen-specific proliferative response to β2-GPI was measured and a significant 50% reduction in the response of lymphocytes of FTS-treated mice was measured in both MRL/lpr and MRL/++ mice."}, "[4]": {"test_system": "carotid balloon injury in Wistar rats", "experiment": "Rat carotid balloon injury, intimal hyperplasia (morphometry)", "format": "in vivo", "procedure": "Group A: Four rats received daily intraperitoneal injections of FTS (5 mg/Kg) starting from the day of injury induction until sacrifice, 14 days later.\nGroup B: Four rats received daily intraperitoneal injections of control vehicle starting from the day of injury induction until sacrifice, 14 days later.\nAnimals were anesthetized by intraperitoneal injection of Ketamin (80 mg/Kg) and Xylazine (5 mg/Kg). […] Briefly, a balloon catheter (2F Fogarty) was passed through the external carotid into the aorta; the balloon was inflated with sufficient water to distend the common carotid artery and then pulled back to the external carotid. This procedure was repeated three times, and then the catheter was removed. After 14 days, the animals were sacrificed and the right and left carotid arteries were taken out and fixed in 4% paraformaldehyde until embedding in Paraffin. The arteries were cut in 10 um sections and stained with H&E and computer-assisted morphometric analyses were performed. The tested parameters were: intimal area, medial area, intimal/medial ratio and lumen area. Additionally, the %CSAN-N (% cross sectional area neointimal-neointamal) was calculated [IEL area-Lumen area]×100/IEL (a measure of the degree to which the IEL area is reduced by neointimal with greater normalization of the effect of changes in vessel wall size. Vasular remodeling process were further evaluated by computing the amount of plaque relative to the EEL (external elastic lamina) area."}, "[5]": {"test_system": "cancers in animals mediated by oncogenic forms of Ras", "conditions": "cited from earlier work"}},
  "data": [
    {"smiles": "CC(C)=CCC/C(C)=C/CC/C(C)=C/CSc1ccccc1C(=O)O", "note": "[FTS, farnesyl thiosalicylic acid]", "values": [
      {"measurement": "inhibition at 12.5 µM", "setting": "[1]; 12.5 μM FTS", "result": "22 to 50", "unit": "%"},
      {"measurement": "inhibition at 25 µM", "setting": "[1]; 25 μM FTS", "result": "66 to 71", "unit": "%"},
      {"measurement": "inhibition at 50 µM", "setting": "[1]; 50 μM FTS", "result": "95 to 98", "unit": "%"},
      {"measurement": "LPS and ConA induced splenocyte proliferation (stimulation index)", "setting": "[2]", "result": "significant reduction"},
      {"measurement": "basal 3H-thymidine incorporation into DNA", "setting": "[2]", "result": "no effect"},
      {"measurement": "reduction of the response to LPS (stimulation index)", "setting": "[3]; 5 mg/Kg FTS 5 days a week for 3 months", "result": "two-fold reduction"},
      {"measurement": "decrease in splenocyte proliferation to ConA, LPS and β2-GPI", "setting": "[3]; FTS 5 mg/Kg/day", "result": 50, "unit": "%"},
      {"measurement": "response to ConA (stimulation index)", "setting": "[3]; MRL/++ mice", "result": "not in lymphocytes of the FTS-treated MRL/++"},
      {"measurement": "response to ConA (stimulation index)", "setting": "[3]; MRL/lpr mice", "result": "further reduced"},
      {"measurement": "reduction in the proliferative response to β2-GPI", "setting": "[3]; both MRL/lpr and MRL/++ mice", "result": 50, "unit": "%"},
      {"measurement": "reduction of intimal area", "setting": "[4]; FTS 5 mg/Kg i.p. daily 14 days vs control", "result": 76, "unit": "%"},
      {"measurement": "medial area", "setting": "[4]; FTS 5 mg/Kg i.p. daily 14 days, control 1.2±0.14", "result": 0.91, "unit": "mm^2"},
      {"measurement": "Intimal area", "setting": "[4]; FTS 5 mg/Kg i.p. daily 14 days, control 1.61", "result": 0.38, "unit": "mm^2"},
      {"measurement": "luminal area", "setting": "[4]; FTS 5 mg/Kg i.p. daily 14 days, control 2.30", "result": "1.45±0.34", "unit": "mm^2"},
      {"measurement": "%CSAN-N", "setting": "[4]; FTS 5 mg/Kg i.p. daily 14 days, control 52.4±7.4", "result": "15.5±4.3", "unit": "%"},
      {"measurement": "reduction in cancer cell growth", "setting": "[5]; cancers in animals, in some cases", "result": "greater than 90%"},
      {"measurement": "body weight, specific organs size, blood count and chemistry", "setting": "[5]; earlier studies in FTS-treated animals", "result": "no alteration"},
      {"measurement": "doses that effectively inhibited tumor growth", "setting": "[5]; previous animal studies", "result": "3 to 10", "unit": "mg/kg"},
      {"measurement": "effect on normal cells", "setting": "[5]; similar dosages as in cancer treatment", "result": "very little, if any, effect on normal cells"}
    ]}
  ]
}
